The text below walks through data of PMC8325362, “Drugs repurposed for COVID-19 by virtual screening of 6,218 drugs and cell-based assay” (Proceedings of the National Academy of Sciences of the …, 2021).

SMILES strings stand for the structures. Like-named read-outs stand apart in the source and are kept apart here.

For data set [1], the system named is RdRp. More on the design: method as in ref 28 (a number printed in a supplementary file, which may have a reference list of its own: not looked up in the article's list). Particulars: PDB 4WTG; read-out: Binding affinity to RdRp (IC50); cited from earlier work.
Data set [2] deals with SARS-CoV-2. The experiment in a line: microbe, parasite or virus in culture. The class given is cell-based. Particulars: Severe acute respiratory syndrome coronavirus 2, Calu-3, 24 h, Calu-3 cells, MOI 0.5, 24 h.
For data set [3], the system named is SARS-CoV-2. Put plainly: microbe, parasite or virus in culture. Particulars: Severe acute respiratory syndrome coronavirus 2, Vero, 24 h, read-out: SARS-CoV-2 IC50 in Vero cells.
In another data set the target is M^pro (Severe acute respiratory syndrome coronavirus 2, UniProt P0DTD1). Format: biochemical. Particulars: FRET assay, 0.1 to 50 μM.
Data set [4] is described as follows: Cytotoxicity (CC50) in Calu-3 cells. The note with it: human.
For data set [5] the following is noted: read-out: Approx. Cmax (maximum serum concentration); rat, oral; cited from earlier work.
Data set [6] in a line: Cytotoxicity (CC50) in Vero cells. The note with it: African green monkey.
A further data set addresses SARS-CoV-2 RdRp (Severe acute respiratory syndrome coronavirus 2, UniProt P0DTD1). The experiment in a line: RdRp enzyme assay kit. Particulars: positive control, even at high concentrations. Also on record: dose or concentration left out as unconfirmed. The class given is biochemical.
Data set [7] concerns RdRp. Also on record: method as in ref 29 (a number printed in a supplementary file, which may have a reference list of its own: not looked up in the article's list). Particulars: PDB 1T05; read-out: Binding affinity to RdRp (IC50); cited from earlier work.
A further data set relates to Mpro. The note with it: read-out: Binding affinity to Mpro (IC50); PDB 6W63; cited from earlier work.

As a reminder, the IC50 is the point on the concentration scale where inhibition reaches its midpoint. In the case of `CC(C)OC(=O)[C@H](C)N[P@](=O)(OC[C@H]1O[C@@H](n2ccc(=O)[nH]c2=O)[C@](C)(F)[C@@H]1O)Oc1ccccc1` [6GS (sofosbuvir)], in the data set with RdRp [1], the IC50 is 0.064 µM.

As usually defined, the CC50 is the concentration at which the toxic effect on the cells reaches its halfway point. As for `Cc1cc(O)c2c(c1)C(=O)c1cc(O)cc(O)c1C2=O` [Emodin], the IC50 was found to be 27.9 µM in the data set on SARS-CoV-2 [2] and 31.4 µM in the data set with SARS-CoV-2 [3]. The “inhibitory activity against M^pro” value on M^pro is listed as “showed inhibitory activities”. In addition, the CC50 at 24 h in data set [4] and in [6] was over 50 µM each time. In addition, in data set [5], the Cmax was about 78 nM.

As for `N#C[C@@]1(c2ccc3c(N)ncnn23)O[C@H](COP(=O)(O)OP(=O)(O)OP(=O)(O)O)[C@@H](O)[C@H]1O` [RDV-TP, remdesivir triphosphate], the “activity in RdRp assay” value on SARS-CoV-2 RdRp is reported as “did not show activity”.

As to `C[C@H](Cn1cnc2c(N)ncnc21)OCP(=O)(O)O` [TNV (tenofovir)], in the data set with RdRp [7], the IC50 was 1.3 µM.

For `CC(C)(C)c1ccc(N(C(=O)c2cnc[nH]2)[C@@H](C(=O)NC2CCCCC2)c2cccnc2)cc1` [X77], the IC50 in the data set on Mpro is 2.3 µM.
